Source: patent EP4745137A1 (Gluetacs Therapeutics (Shanghai) Co., Ltd., priority 2023, dated 2025)
pIC50: −log10 of the molar value.

Columns and labels:
[1] = molecular target: T1, WEE1 (Homo sapiens, UniProt P30291+Q96SW2); assay: Western-blot assay of substrate protein degradation in hPBMCs, WEE1; type: cell-based; conditions: 24 hours of compound treatment
T1 construct: endogenous in cells; host or cells: hPBMCs (Milecell Biotechnologies)

[2] = molecular target: T2, IKZF1 (Homo sapiens, UniProt Q13422+Q96SW2); assay: Western-blot assay of substrate protein degradation in hPBMCs, IKZF1; type: cell-based; conditions: 24 hours of compound treatment
T2 construct: endogenous in cells; host or cells: hPBMCs (Milecell Biotechnologies)

[3] = molecular target: T3, IKZF2 (Homo sapiens, UniProt Q96SW2+Q9UKS7); assay: Western-blot assay of substrate protein degradation in hPBMCs, IKZF2; type: cell-based; conditions: 24 hours of compound treatment
T3 construct: endogenous in cells; host or cells: hPBMCs (Milecell Biotechnologies)

[4] = molecular target: T4, IKZF3 (Homo sapiens, UniProt Q96SW2+Q9UKT9); assay: Western-blot assay of substrate protein degradation in hPBMCs, IKZF3; type: cell-based; conditions: 24 hours of compound treatment
T4 construct: endogenous in cells; host or cells: hPBMCs (Milecell Biotechnologies)

[5] = molecular target: T5, CK1α (Homo sapiens, UniProt P48729+Q96SW2); assay: Western-blot assay of substrate protein degradation in hPBMCs, CK1α; type: cell-based; conditions: 24 hours of compound treatment
T5 construct: endogenous in cells; host or cells: hPBMCs (Milecell Biotechnologies)

[6] = molecular target: T6, GSPT1 (Homo sapiens, UniProt P15170+Q96SW2); assay: Western-blot assay of substrate protein degradation in hPBMCs, GSPT1; type: cell-based; conditions: 24 hours of compound treatment
T6 construct: endogenous in cells; host or cells: hPBMCs (Milecell Biotechnologies)

[7] = molecular target: T7, human Cereblon WT GST-tagged protein (Homo sapiens, UniProt Q96SW2); assay: CRBN-binding affinity by HTRF (CEREBLON BINDING kit); conditions: HTRF inhibitory activity, CEREBLON BINDING kit; read-out: HTRF IC50
T7 construct: purchased CISBIO 64BDCRBNPEH

[8] = test system: Human acute T lymphocytic leukemia cells (Molt-4); assay: Tumor cell proliferation inhibition (CellTiter-Meiluncell Luminescent Cell Viability Assay), Molt-4; conditions: MOLT-4, 96 h, read-out: inhibitory activity (IC50, nM) against tumor cells proliferation, Molt 4
Method: The tumor cells used herein were cultured in a cell culture medium listed in table 2 at 37°C in an incubator with 5% CO2. Prior to experimentation, all cell lines used were correctly identified by STR profiling, and tested negative for mycoplasma contamination using a mycoplasma detection kit through routine screenings.
On the following day, the test compounds of the present disclosure were subjected to serial dilution. […] Subsequently, 0.5 µL of the test compound dilution was transferred into the 96-well plate containing the cells, with each well containing 100 µL of cell culture medium. […] Into the 96-well plate, the diluted test compounds and corresponding detection reagents were added, resulting in final test compound concentrations of 500 nM and 10 nM, respectively. The experimental procedure is described below using the diluted 2 µM test compound as an example.
After the cells were treated with the compounds of the present disclosure for a specified period (the treatment durations were shown in Table 3), the cell viability assay reagent was added to the culture medium according to the kit's instructions to determine cell viability. […] All controls were treated using the same procedure as the compounds of the present disclosure. The growth inhibition curves for the compounds of the present disclosure were plotted using Prism GraphPad software, and the IC50 values were calculated therefrom.

[9] = compounds tested at 50 nM and 500 nM (concentration of the table not stated)
[10] = 50 nM and 500 nM tested (concentration behind the class not stated)

T3 sequence (Q9UKS7 whole entry): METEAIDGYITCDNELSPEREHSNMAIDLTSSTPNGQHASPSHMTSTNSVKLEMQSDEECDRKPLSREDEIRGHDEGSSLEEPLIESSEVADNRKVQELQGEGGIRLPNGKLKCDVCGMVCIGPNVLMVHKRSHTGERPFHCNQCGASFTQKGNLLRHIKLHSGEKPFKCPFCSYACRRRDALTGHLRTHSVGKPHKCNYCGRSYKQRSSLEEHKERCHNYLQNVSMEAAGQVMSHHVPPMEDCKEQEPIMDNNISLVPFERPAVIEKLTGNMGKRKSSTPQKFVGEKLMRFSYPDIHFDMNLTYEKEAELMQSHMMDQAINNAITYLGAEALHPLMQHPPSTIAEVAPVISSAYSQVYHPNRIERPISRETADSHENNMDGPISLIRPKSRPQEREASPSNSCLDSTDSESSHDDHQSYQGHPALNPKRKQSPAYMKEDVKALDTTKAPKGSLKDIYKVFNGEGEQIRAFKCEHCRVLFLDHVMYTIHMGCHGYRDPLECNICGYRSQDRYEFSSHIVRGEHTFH
T3 sequence (Q96SW2 whole entry): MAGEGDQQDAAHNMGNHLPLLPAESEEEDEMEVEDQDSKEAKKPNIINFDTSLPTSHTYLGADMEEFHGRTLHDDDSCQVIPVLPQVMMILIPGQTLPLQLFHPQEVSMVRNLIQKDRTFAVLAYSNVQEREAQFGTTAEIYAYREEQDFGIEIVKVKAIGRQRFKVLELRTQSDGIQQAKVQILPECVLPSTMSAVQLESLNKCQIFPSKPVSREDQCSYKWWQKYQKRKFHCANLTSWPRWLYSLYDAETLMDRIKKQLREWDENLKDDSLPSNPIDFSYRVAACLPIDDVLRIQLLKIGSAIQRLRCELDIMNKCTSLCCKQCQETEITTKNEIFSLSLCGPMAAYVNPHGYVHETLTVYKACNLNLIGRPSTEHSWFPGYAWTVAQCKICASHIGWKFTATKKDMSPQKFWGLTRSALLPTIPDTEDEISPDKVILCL
T3 sequence (Q16531 whole entry partner): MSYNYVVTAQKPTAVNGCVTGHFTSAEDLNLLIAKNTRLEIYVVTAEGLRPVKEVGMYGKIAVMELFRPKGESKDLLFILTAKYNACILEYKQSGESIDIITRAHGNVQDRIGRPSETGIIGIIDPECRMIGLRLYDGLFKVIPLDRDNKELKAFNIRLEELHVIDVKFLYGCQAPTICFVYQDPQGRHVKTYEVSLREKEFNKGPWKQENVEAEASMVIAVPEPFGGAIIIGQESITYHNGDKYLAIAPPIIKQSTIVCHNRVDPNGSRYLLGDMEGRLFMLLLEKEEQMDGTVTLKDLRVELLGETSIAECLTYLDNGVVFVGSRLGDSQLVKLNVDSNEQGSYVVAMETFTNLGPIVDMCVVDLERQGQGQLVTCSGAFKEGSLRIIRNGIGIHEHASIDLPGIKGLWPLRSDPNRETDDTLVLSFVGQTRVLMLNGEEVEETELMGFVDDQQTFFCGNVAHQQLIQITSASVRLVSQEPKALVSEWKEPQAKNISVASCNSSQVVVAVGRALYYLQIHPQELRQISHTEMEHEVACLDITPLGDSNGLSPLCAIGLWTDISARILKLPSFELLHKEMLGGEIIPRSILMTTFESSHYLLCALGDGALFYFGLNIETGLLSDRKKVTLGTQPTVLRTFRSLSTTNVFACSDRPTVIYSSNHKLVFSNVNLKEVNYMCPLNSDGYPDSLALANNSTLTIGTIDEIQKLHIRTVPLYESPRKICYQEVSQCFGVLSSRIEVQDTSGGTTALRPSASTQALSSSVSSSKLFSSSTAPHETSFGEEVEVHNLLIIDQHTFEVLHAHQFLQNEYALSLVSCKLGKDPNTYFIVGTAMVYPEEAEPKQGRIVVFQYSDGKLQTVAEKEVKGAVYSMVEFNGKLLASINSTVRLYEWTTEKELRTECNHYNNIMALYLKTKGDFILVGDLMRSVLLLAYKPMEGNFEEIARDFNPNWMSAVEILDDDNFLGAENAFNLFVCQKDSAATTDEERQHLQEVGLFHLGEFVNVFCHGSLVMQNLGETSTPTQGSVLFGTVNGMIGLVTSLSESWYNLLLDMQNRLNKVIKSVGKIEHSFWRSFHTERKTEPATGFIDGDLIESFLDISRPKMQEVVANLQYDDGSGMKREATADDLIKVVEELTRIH
T1 sequence (P30291 whole entry): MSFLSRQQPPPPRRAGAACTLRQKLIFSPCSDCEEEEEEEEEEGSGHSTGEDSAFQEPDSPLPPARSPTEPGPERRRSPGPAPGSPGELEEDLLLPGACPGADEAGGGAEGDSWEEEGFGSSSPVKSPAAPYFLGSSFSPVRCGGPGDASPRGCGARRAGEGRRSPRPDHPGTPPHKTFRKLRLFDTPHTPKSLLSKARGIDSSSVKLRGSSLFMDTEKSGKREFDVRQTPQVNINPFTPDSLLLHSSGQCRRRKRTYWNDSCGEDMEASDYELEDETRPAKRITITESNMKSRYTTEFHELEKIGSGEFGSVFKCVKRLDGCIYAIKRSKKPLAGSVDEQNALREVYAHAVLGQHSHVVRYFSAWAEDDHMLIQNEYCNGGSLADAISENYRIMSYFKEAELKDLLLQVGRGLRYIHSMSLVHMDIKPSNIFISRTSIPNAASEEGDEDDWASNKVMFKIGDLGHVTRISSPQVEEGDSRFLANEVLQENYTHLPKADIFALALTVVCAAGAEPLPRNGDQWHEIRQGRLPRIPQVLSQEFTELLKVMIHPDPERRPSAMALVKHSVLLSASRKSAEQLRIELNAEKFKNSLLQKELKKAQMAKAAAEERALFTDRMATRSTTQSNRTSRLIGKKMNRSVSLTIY
T1 sequence (Q96SW2 whole entry): as the sequence (Q96SW2 whole entry) above
T1 sequence (Q16531 whole entry partner): as the sequence (Q16531 whole entry partner) above
T7 sequence (Q96SW2 whole entry): as the sequence (Q96SW2 whole entry) above
T4 sequence (Q9UKT9 whole entry): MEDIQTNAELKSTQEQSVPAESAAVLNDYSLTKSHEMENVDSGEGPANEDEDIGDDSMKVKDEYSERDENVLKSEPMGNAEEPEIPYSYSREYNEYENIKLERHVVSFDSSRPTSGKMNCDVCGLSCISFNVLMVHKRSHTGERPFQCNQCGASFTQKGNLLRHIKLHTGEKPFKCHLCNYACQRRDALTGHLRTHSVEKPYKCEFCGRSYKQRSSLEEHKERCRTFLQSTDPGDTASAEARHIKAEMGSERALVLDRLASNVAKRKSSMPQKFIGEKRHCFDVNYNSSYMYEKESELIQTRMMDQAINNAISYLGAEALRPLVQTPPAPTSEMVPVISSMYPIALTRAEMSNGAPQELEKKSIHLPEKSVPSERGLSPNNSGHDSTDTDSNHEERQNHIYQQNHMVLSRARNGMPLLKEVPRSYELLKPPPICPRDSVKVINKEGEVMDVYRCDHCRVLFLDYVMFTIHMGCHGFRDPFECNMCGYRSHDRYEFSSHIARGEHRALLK
T4 sequence (Q96SW2 whole entry): as the sequence (Q96SW2 whole entry) above
T4 sequence (Q16531 whole entry partner): as the sequence (Q16531 whole entry partner) above
T5 sequence (P48729 whole entry): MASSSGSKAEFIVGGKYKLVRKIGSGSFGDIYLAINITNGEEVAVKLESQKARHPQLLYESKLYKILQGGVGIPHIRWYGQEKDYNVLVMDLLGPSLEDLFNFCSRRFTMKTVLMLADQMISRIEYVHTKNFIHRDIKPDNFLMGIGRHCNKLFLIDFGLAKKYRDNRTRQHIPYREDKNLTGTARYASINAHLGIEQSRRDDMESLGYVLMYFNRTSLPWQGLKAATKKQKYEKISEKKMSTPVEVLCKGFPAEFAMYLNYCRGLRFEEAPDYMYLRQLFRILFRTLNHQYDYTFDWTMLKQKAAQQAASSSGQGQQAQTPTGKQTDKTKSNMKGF
T5 sequence (Q96SW2 whole entry): as the sequence (Q96SW2 whole entry) above
T5 sequence (Q16531 whole entry partner): as the sequence (Q16531 whole entry partner) above
T6 sequence (P15170 whole entry): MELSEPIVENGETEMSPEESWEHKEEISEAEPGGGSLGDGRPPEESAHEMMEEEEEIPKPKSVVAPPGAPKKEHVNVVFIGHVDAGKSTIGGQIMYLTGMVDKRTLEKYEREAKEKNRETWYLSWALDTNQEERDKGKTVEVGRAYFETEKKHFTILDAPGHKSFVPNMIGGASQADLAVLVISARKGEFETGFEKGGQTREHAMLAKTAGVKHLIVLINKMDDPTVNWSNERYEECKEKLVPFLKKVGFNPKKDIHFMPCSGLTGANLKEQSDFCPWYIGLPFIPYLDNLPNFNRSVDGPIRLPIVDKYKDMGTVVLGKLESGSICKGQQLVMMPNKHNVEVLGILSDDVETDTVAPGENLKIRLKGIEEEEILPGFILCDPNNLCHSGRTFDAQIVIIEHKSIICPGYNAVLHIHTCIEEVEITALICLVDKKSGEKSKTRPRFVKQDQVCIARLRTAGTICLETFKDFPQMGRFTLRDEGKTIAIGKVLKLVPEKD
T6 sequence (Q96SW2 whole entry): as the sequence (Q96SW2 whole entry) above
T6 sequence (Q16531 whole entry partner): as the sequence (Q16531 whole entry partner) above

Row | SMILES | Weel substrate protein remaining % [1, 9] | IKZF 1 substrate protein remaining % [2, 9] | IKZF2 substrate protein remaining % [3, 9] | IKZF3 substrate protein remaining % [4, 9] | CK1a substrate protein remaining % [5, 9] | GSPT1 substrate protein remaining % [6, 9] | pIC50 [7] | IC50 [8] [nM] | Weel substrate protein remaining % [1, 10] | IKZF 1 substrate protein remaining % [2, 10] | IKZF2 substrate protein remaining % [3, 10] | IKZF3 substrate protein remaining % [4, 10] | CK1a substrate protein remaining % [5, 10] | GSPT1 substrate protein remaining % [6, 10]
1 | Cc1ccsc1N1CCN(Cc2ccc3c(c2)CN(C2CCC(=O)NC2=O)C3=O)CC1 (centres unmarked) [GT-04582, 3-(5-((4-(3-methylthiophen-2-yl)piperazin-1-yl)methyl)-1-oxoisoindolin-2-yl)piperidine-2,6-dione] | A (0% ≤ substrate protein remaining % ≤ 80%) | A (0% ≤ substrate protein remaining % ≤ 80%) | A (0% ≤ substrate protein remaining % ≤ 80%) | A (0% ≤ substrate protein remaining % ≤ 80%) | B (80%< substrate protein remaining %≤ 100%) | A (0% ≤ substrate protein remaining % ≤ 80%) | > 6.30 | 50 to 100 |  |  |  |  |  | 
2 | O=C1CCC(N2Cc3cc(CN4CCN(c5nccc(Cl)c5F)CC4)ccc3C2=O)C(=O)N1 (centres unmarked) [GT-04610, 3-(5-((4-(4-chloro-3-fluoropyridin-2-yl)piperazin-1-yl)methyl)-1-oxoisoindolin-2-yl)piperidine-2,6-dione] | A (0% ≤ substrate protein remaining % ≤ 80%) | A (0% ≤ substrate protein remaining % ≤ 80%) | A (0% ≤ substrate protein remaining % ≤ 80%) | A (0% ≤ substrate protein remaining % ≤ 80%) | A (0% ≤ substrate protein remaining % ≤ 80%) | A (0% ≤ substrate protein remaining % ≤ 80%) | 6.00 to 6.30 | 500 to 1000 |  |  |  |  |  | 
3 | O=C1CCC(N2Cc3cc(CN4CCC(c5ccco5)CC4)ccc3C2=O)C(=O)N1 (centres unmarked) [GT-04618, 3-(5-((4-(furan-2-yl)piperidin-1-yl)methyl)-1-oxoisoindolin-2-yl)piperidine-2,6-dione] | A (0% ≤ substrate protein remaining % ≤ 80%) | A (0% ≤ substrate protein remaining % ≤ 80%) | A (0% ≤ substrate protein remaining % ≤ 80%) | A (0% ≤ substrate protein remaining % ≤ 80%) | B (80%< substrate protein remaining %≤ 100%) | A (0% ≤ substrate protein remaining % ≤ 80%) | 6.00 to 6.30 | 50 to 100 |  |  |  |  |  | 
4 | O=C1CCC(N2Cc3cc(CN4CC(c5ccnc6cc(F)ccc56)C4)ccc3C2=O)C(=O)N1 (centres unmarked) [GT-04651, 3-(5-((3-(7-fluoroquinolin-4-yl)azetidin-1-yl)methyl)-1-oxoisoindolin-2-yl)piperidine-2,6-dione] | B (80%< substrate protein remaining %≤ 100%) | A (0% ≤ substrate protein remaining % ≤ 80%) | A (0% ≤ substrate protein remaining % ≤ 80%) | A (0% ≤ substrate protein remaining % ≤ 80%) | A (0% ≤ substrate protein remaining % ≤ 80%) | A (0% ≤ substrate protein remaining % ≤ 80%) | > 6.30 | 500 to 1000 |  |  |  |  |  | 
5 | O=C1CCC(N2Cc3cc(CN4CCC(c5cccc6c(F)cccc56)CC4)ccc3C2=O)C(=O)N1 (centres unmarked) [GT-04664, 3-(5-((4-(5-fluoronaphthalen-1-yl)piperidin-1-yl)methyl)-1-oxoisoindolin-2-yl)piperidine-2,6-dione] | A (0% ≤ substrate protein remaining % ≤ 80%) | A (0% ≤ substrate protein remaining % ≤ 80%) | A (0% ≤ substrate protein remaining % ≤ 80%) | A (0% ≤ substrate protein remaining % ≤ 80%) | A (0% ≤ substrate protein remaining % ≤ 80%) | A (0% ≤ substrate protein remaining % ≤ 80%) | 6.00 to 6.30 | 100 to 500 |  |  |  |  |  | 
6 | Cc1csc2ncnc(C3=CCN(Cc4ccc5c(c4)CN(C4CCC(=O)NC4=O)C5=O)CC3)c12 (centres unmarked) [GT-04703, 3-(5-((4-(5-methylthieno[2,3-d]pyrimidin-4-yl)-3,6-dihydropyridin-1(2H)-yl)methyl)-1-oxoisoindolin-2-yl)piperidine-2,6-dione] | B (80%< substrate protein remaining %≤ 100%) | A (0% ≤ substrate protein remaining % ≤ 80%) | A (0% ≤ substrate protein remaining % ≤ 80%) | A (0% ≤ substrate protein remaining % ≤ 80%) | A (0% ≤ substrate protein remaining % ≤ 80%) | A (0% ≤ substrate protein remaining % ≤ 80%) | 6.00 to 6.30 | 100 to 500 |  |  |  |  |  | 
7 | Cc1ccsc1C1=CCN(Cc2cccc3c2C(=O)N(C2CCC(=O)NC2=O)C3=O)CC1 (centres unmarked) [GT-04731, 2-(2,6-dioxopiperidin-3-yl)-4-((4-(3-methylthiophen-2-yl)-3,6-dihydropyridin-1(2H)-yl)methyl)isoindoline-1,3-dione] | B (80%< substrate protein remaining %≤ 100%) | B (80%< substrate protein remaining %≤ 100%) | B (80%< substrate protein remaining %≤ 100%) | B (80%< substrate protein remaining %≤ 100%) | B (80%< substrate protein remaining %≤ 100%) | A (0% ≤ substrate protein remaining % ≤ 80%) |  | 500 to 1000 |  |  |  |  |  | 
8 | Cc1nc(C2=CCN(Cc3ccc4c(c3)C(=O)N(C3CCC(=O)NC3=O)C4=O)CC2)c2c3c(sc2n1)CCC3 (centres unmarked) [GT-06682, 2-(2,6-dioxopiperidin-3-yl)-5-((4-(2-methyl-6,7-dihydro-5H-cyclopenta[4,5]thieno[2,3-d]pyrimidin-4-yl)-3,6-dihydropyridin-1(2H)-yl)methyl)isoindoline-1,3-dione] |  |  |  |  |  |  | 5.72 to 5.82 |  | A (0% ≤ substrate protein remaining % ≤ 80%) | B (80%< substrate protein remaining %≤ 100%) | A (0% ≤ substrate protein remaining % ≤ 80%) | A (0% ≤ substrate protein remaining % ≤ 80%) | B (80%< substrate protein remaining %≤ 100%) | A (0% ≤ substrate protein remaining % ≤ 80%)
9 | O=C1CCC(N2C(=O)c3ccc(CN4CCC(c5c[nH]c6ncccc56)CC4)cc3C2=O)C(=O)N1 (centres unmarked) [GT-06705, 5-((4-(1H-pyrrolo[2,3-b]pyridin-3-yl)piperidin-1-yl)methyl)-2-(2,6-dioxopiperidin-3-yl)isoindoline-1,3-dione] |  |  |  |  |  |  | 5.72 to 5.82 |  | A (0% ≤ substrate protein remaining % ≤ 80%) | B (80%< substrate protein remaining %≤ 100%) | B (80%< substrate protein remaining %≤ 100%) | B (80%< substrate protein remaining %≤ 100%) | B (80%< substrate protein remaining %≤ 100%) | A (0% ≤ substrate protein remaining % ≤ 80%)
10 | O=C1CCC(N2Cc3cc(CNC45CC6CC(CC(C6)C4)C5)ccc3C2=O)C(=O)N1 (centres unmarked) [GT-06913, 3-(5-((((3s,5s,7s)-adamantan-1-yl)amino)methyl)-1-oxoisoindolin-2-yl)piperidine-2,6-dione] |  |  |  |  |  |  | 5.72 to 5.82 |  | A (0% ≤ substrate protein remaining % ≤ 80%) | A (0% ≤ substrate protein remaining % ≤ 80%) | A (0% ≤ substrate protein remaining % ≤ 80%) | B (80%< substrate protein remaining %≤ 100%) | A (0% ≤ substrate protein remaining % ≤ 80%) | A (0% ≤ substrate protein remaining % ≤ 80%)
11 | CC1(C)[C@@H]2CC[C@]1(CS(=O)(=O)NCc1ccc3c(c1)CN(C1CCC(=O)NC1=O)C3=O)C(=O)C2 (some centres unmarked) [GT-06927] |  |  |  |  |  |  | 6.00 to 6.30 |  | B (80%< substrate protein remaining %≤ 100%) | B (80%< substrate protein remaining %≤ 100%) | B (80%< substrate protein remaining %≤ 100%) | B (80%< substrate protein remaining %≤ 100%) | A (0% ≤ substrate protein remaining % ≤ 80%) | B (80%< substrate protein remaining %≤ 100%)
